Measured values as given in ChEMBL document CHEMBL1201862, “PubChem BioAssay data set” (2004).
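96-well plates; 48 h exposure; 5 concentrations. Endpoints by linear interpolation between flanking doses. Not reached: highest tested concentration assigned. GI50: concentration for 50% inhibition of growth.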 The source made the active and inactive calls. No stated cut-off is given here; in the data, active = GI50 up to about 1.1 µM and inactive = higher.

Assays:
Test in all cases: DTP human tumour cell line panel, 48 h
A549 = system: A549
ACHN = system: ACHN
HCC 2998 = system: HCC 2998
HCT-116 = system: HCT-116
IGROV-1 = system: IGROV-1
NCI-H23 = system: NCI-H23
OVCAR-4 = system: OVCAR-4
OVCAR-5 = system: OVCAR-5
OVCAR-8 = system: OVCAR-8
RPMI-8226 = system: RPMI-8226
SF-539 = system: SF-539
SK-OV-3 = system: SK-OV-3
TK-10 = system: TK-10
UACC-257 = system: UACC-257
CCRF-CEM = system: CCRF-CEM
COLO 205 = system: COLO 205
HL-60 = system: HL-60

Measured: GI50

CCOC(=O)N1CCC(=O)C[C@@H]1C/C=C/P1(=O)O[C@H](c2ccccc2)C(C)N1C(C)C (some centres undefined)
inactive: A549 > 100 µM | ACHN > 100 µM | HCC 2998 > 100 µM | HCT-116 > 100 µM | IGROV-1 > 100 µM | NCI-H23 > 100 µM | OVCAR-4 > 100 µM | OVCAR-5 > 100 µM | OVCAR-8 > 100 µM | RPMI-8226 > 100 µM | SF-539 > 100 µM | SK-OV-3 > 100 µM | TK-10 > 100 µM | UACC-257 > 100 µM

COc1ccc([C@@H]2CC(=O)N2)cc1
inactive: A549 > 100 µM | ACHN > 100 µM | CCRF-CEM > 100 µM | COLO 205 > 100 µM | HCT-116 > 100 µM | HL-60 > 100 µM | IGROV-1 > 100 µM | NCI-H23 > 100 µM | OVCAR-4 > 100 µM | OVCAR-5 > 100 µM | OVCAR-8 > 100 µM | RPMI-8226 > 100 µM | SF-539 > 100 µM | SK-OV-3 > 100 µM | TK-10 > 100 µM | UACC-257 > 100 µM

NC(=O)n1ncc(Cl)c(Cl)c1=O
inactive: A549 > 100 µM | ACHN > 100 µM | CCRF-CEM > 100 µM | COLO 205 > 100 µM | HCT-116 > 100 µM | HL-60 95.3 µM | IGROV-1 > 100 µM | NCI-H23 > 100 µM | OVCAR-4 > 100 µM | OVCAR-5 > 100 µM | OVCAR-8 > 100 µM | SF-539 > 100 µM | SK-OV-3 > 100 µM | TK-10 > 100 µM | UACC-257 > 100 µM

CC(C)=CCC/C(=C/CC/C(C)=C/CCc1ccoc1)C(=O)O
inactive: A549 > 100 µM | ACHN > 100 µM | CCRF-CEM > 100 µM | COLO 205 > 100 µM | HCC 2998 > 100 µM | HCT-116 > 100 µM | NCI-H23 > 100 µM | OVCAR-4 > 100 µM | OVCAR-5 26.5 µM | OVCAR-8 > 100 µM | SF-539 > 100 µM | SK-OV-3 > 100 µM | UACC-257 > 100 µM

c1ccc2c(CNCCCCCCNCc3cccc4ccccc34)cccc2c1
inactive: A549 17.8 µM | ACHN 15.6 µM | CCRF-CEM 3.06 µM | COLO 205 1.66 µM | HCT-116 1.99 µM | HL-60 1.46 µM | IGROV-1 16.2 µM | NCI-H23 16.4 µM | OVCAR-4 14.7 µM | OVCAR-5 15.9 µM | OVCAR-8 14.5 µM | RPMI-8226 2.27 µM | SF-539 1.82 µM | SK-OV-3 17.5 µM | TK-10 12.6 µM | UACC-257 1.74 µM
